Source: US10004701B2, “Methods and compositions for treating infection” (UNIVERSITY OF ROCHESTER, priority 2012, dated 2018)
Structures can show the parent of a compound that is named as a salt. Where two headings read alike, the source gives them in different places.

Key:
Experiment in all cases: AK assay 384-well format, Prestwick library screening
E. faecium = format: cell-based, Enterococcus faecium; details: 50 μM final drug concentration; for fold induction at 50 µM: Enterococcus faecium, 3 h
[1] = test system: S. aureus strain USA300-0114; format: cell-based, Staphylococcus aureus; details: 50 μM final drug concentration; for fold induction at 50 µM: Staphylococcus aureus, USA300, 3 h
K. pneumoniae = format: cell-based, Klebsiella pneumoniae; details: 50 μM final drug concentration; for fold induction at 50 µM: Klebsiella pneumoniae, 3 h
[2] = test system: A. baumannii strain 98-37-09; format: cell-based, Acinetobacter baumannii; details: 50 μM final drug concentration; for fold induction at 50 µM: Acinetobacter baumannii, 983709, 3 h
P. aeruginosa = format: cell-based, Pseudomonas aeruginosa; details: 50 μM final drug concentration; for fold induction at 50 µM: Pseudomonas aeruginosa, 3 h
E. cloacae = format: cell-based, Enterobacter cloacae; details: 50 μM final drug concentration; for fold induction at 50 µM: Enterobacter cloacae, 3 h
E. coli = format: cell-based, Escherichia coli; details: 50 μM final drug concentration; for fold induction at 50 µM: Escherichia coli, 3 h
[3] = planktonic, cutoff for positive 3-fold increase, read-out: AK-based Prestwick Library Screening Results, E. faecium (fold increase in extracellular AK activity)
[4] = planktonic, cutoff for positive 3-fold increase, read-out: AK-based Prestwick Library Screening Results, S. aureus (fold increase in extracellular AK activity)
[5] = planktonic, cutoff for positive 3-fold increase, read-out: AK-based Prestwick Library Screening Results, K. pneumoniae (fold increase in extracellular AK activity)
[6] = planktonic, cutoff for positive 3-fold increase, read-out: AK-based Prestwick Library Screening Results, A. baumannii (fold increase in extracellular AK activity)
[7] = planktonic, cutoff for positive 3-fold increase, read-out: AK-based Prestwick Library Screening Results, P. aeruginosa (fold increase in extracellular AK activity)
[8] = planktonic, cutoff for positive 3-fold increase, read-out: AK-based Prestwick Library Screening Results, E. cloacae (fold increase in extracellular AK activity)
[9] = planktonic, cutoff for positive 3-fold increase, read-out: AK-based Prestwick Library Screening Results, E. coli (fold increase in extracellular AK activity)
[10] = 384-well format, cutoff for positive-scoring molecules 3-fold increase
[11] = 384-well format, cutoff for positive-scoring molecules 3-fold increase, read-out: AK-based Prestwick Library Screening Results, E. faecium (increase in extracellular AK activity)
[12] = 384-well format, cutoff for positive-scoring molecules 3-fold increase, read-out: AK-based Prestwick Library Screening Results, S. aureus (increase in extracellular AK activity)
[13] = 384-well format, cutoff for positive-scoring molecules 3-fold increase, read-out: AK-based Prestwick Library Screening Results, K. pneumoniae (increase in extracellular AK activity)
[14] = 384-well format, cutoff for positive-scoring molecules 3-fold increase, read-out: AK-based Prestwick Library Screening Results, A. baumannii (increase in extracellular AK activity)
[15] = 384-well format, cutoff for positive-scoring molecules 3-fold increase, read-out: AK-based Prestwick Library Screening Results, P. aeruginosa (increase in extracellular AK activity)
[16] = 384-well format, cutoff for positive-scoring molecules 3-fold increase, read-out: AK-based Prestwick Library Screening Results, E. cloacae (increase in extracellular AK activity)
[17] = 384-well format, cutoff for positive-scoring molecules 3-fold increase, read-out: AK-based Prestwick Library Screening Results, E. coli (increase in extracellular AK activity)
[18] = cutoff for positive-scoring molecules 3-fold increase, read-out: AK-based Prestwick Library Screening Results, E. faecium (fold increase in extracellular AK activity)
[19] = cutoff for positive-scoring molecules 3-fold increase, read-out: AK-based Prestwick Library Screening Results, S. aureus (fold increase in extracellular AK activity)
[20] = cutoff for positive-scoring molecules 3-fold increase, read-out: AK-based Prestwick Library Screening Results, K. pneumoniae (fold increase in extracellular AK activity)
[21] = cutoff for positive-scoring molecules 3-fold increase, read-out: AK-based Prestwick Library Screening Results, A. baumannii (fold increase in extracellular AK activity)
[22] = cutoff for positive-scoring molecules 3-fold increase, read-out: AK-based Prestwick Library Screening Results, P. aeruginosa (fold increase in extracellular AK activity)
[23] = cutoff for positive-scoring molecules 3-fold increase, read-out: AK-based Prestwick Library Screening Results, E. cloacae (fold increase in extracellular AK activity)
[24] = […], read-out: AK-based Prestwick Library Screening Results, E. coli (fold increase in extracellular AK activity)

## COc1ccc(CN2CCNCC2)c(OC)c1OC [Trimetazidine dihydrochloride]
E. faecium; [3]
  fold induction at 50 µM: 1
[1]; [4]
  fold induction at 50 µM: 1.2
K. pneumoniae; [5]
  fold induction at 50 µM: 1.1
[2]; [6]
  fold induction at 50 µM: 1.2
P. aeruginosa; [7]
  fold induction at 50 µM: 1.1
E. cloacae; [8]
  fold induction at 50 µM: 1.7
E. coli; [9]
  fold induction at 50 µM: 1.4

## OCC(O)CN1CCN(c2ccccc2)CC1 (racemic) [Dropropizine (R,S)]
E. faecium; [10]
  AK-based Prestwick Library Screening Results, E. faecium (increase in extracellular AK activity): 0.9
[1]; [10]
  AK-based Prestwick Library Screening Results, S. aureus (increase in extracellular AK activity): 0.5
K. pneumoniae; [10]
  AK-based Prestwick Library Screening Results, K. pneumoniae (increase in extracellular AK activity): 0.5
[2]; [10]
  AK-based Prestwick Library Screening Results, A. baumannii (increase in extracellular AK activity): 0.5
P. aeruginosa; [10]
  AK-based Prestwick Library Screening Results, P. aeruginosa (increase in extracellular AK activity): 0.5
E. cloacae; [10]
  AK-based Prestwick Library Screening Results, E. cloacae (increase in extracellular AK activity): 0.5
E. coli; [10]
  AK-based Prestwick Library Screening Results, E. coli (increase in extracellular AK activity): 0.7

## CCCN(CCC)C(=O)C(CCC(=O)O)NC(=O)c1ccccc1 (centres unmarked) [Proglumide]
E. faecium; planktonic E. faecium, 384-well, cutoff for positive-scoring molecules 3-fold increase, read-out: AK-based Prestwick Library Screening Results: E. faecium (increase in extracellular AK activity)
  fold induction at 50 µM: 1
[1]; planktonic S. aureus, 384-well, cutoff for positive-scoring molecules 3-fold increase, read-out: AK-based Prestwick Library Screening Results: S. aureus (increase in extracellular AK activity)
  fold induction at 50 µM: 1.1
K. pneumoniae; planktonic K. pneumoniae, 384-well, cutoff for positive-scoring molecules 3-fold increase, read-out: AK-based Prestwick Library Screening Results: K. pneumoniae (increase in extracellular AK activity)
  fold induction at 50 µM: 1.2
[2]; planktonic A. baumannii, 384-well, cutoff for positive-scoring molecules 3-fold increase, read-out: AK-based Prestwick Library Screening Results: A. baumannii (increase in extracellular AK activity)
  fold induction at 50 µM: 1.3
P. aeruginosa; planktonic P. aeruginosa, 384-well, cutoff for positive-scoring molecules 3-fold increase, read-out: AK-based Prestwick Library Screening Results: P. aeruginosa (increase in extracellular AK activity)
  fold induction at 50 µM: 1.1
E. cloacae; planktonic E. cloacae, 384-well, cutoff for positive-scoring molecules 3-fold increase, read-out: AK-based Prestwick Library Screening Results: E. cloacae (increase in extracellular AK activity)
  fold induction at 50 µM: 1.5
E. coli; planktonic E. coli, 384-well, cutoff for positive-scoring molecules 3-fold increase, read-out: AK-based Prestwick Library Screening Results: E. coli (increase in extracellular AK activity)
  fold induction at 50 µM: 1.3

## CN(C)CCC(c1ccc(Cl)cc1)c1ccccn1 (centres unmarked) [Chlorpheniramine maleate]
E. faecium; [11]
  fold induction at 50 µM: 0.9
[1]; [12]
  fold induction at 50 µM: 0.8
K. pneumoniae; [13]
  fold induction at 50 µM: 0.7
[2]; [14]
  fold induction at 50 µM: 0.9
P. aeruginosa; [15]
  fold induction at 50 µM: 0.8
E. cloacae; [16]
  fold induction at 50 µM: 1.1
E. coli; [17]
  fold induction at 50 µM: 1

## C=C(CC)C(=O)c1ccc(OCC(=O)O)c(Cl)c1Cl [Ethacrynic acid]
E. faecium; [11]
  fold induction at 50 µM: 1.3
[1]; [12]
  fold induction at 50 µM: 1.4
K. pneumoniae; [13]
  fold induction at 50 µM: 0.6
[2]; [14]
  fold induction at 50 µM: 0.8
P. aeruginosa; [15]
  fold induction at 50 µM: 0.7
E. cloacae; [16]
  fold induction at 50 µM: 0.8
E. coli; [17]
  fold induction at 50 µM: 0.7

## O=C1C(O)=C([C@H]2CC[C@H](c3ccc(Cl)cc3)CC2)C(=O)c2ccccc21 [Atovaquone]
E. faecium; [3]
  fold induction at 50 µM: 1
[1]; [4]
  fold induction at 50 µM: 1.2
K. pneumoniae; [5]
  fold induction at 50 µM: 0.8
[2]; [6]
  fold induction at 50 µM: 1.2
P. aeruginosa; [7]
  fold induction at 50 µM: 1
E. cloacae; [8]
  fold induction at 50 µM: 1.4
E. coli; [9]
  fold induction at 50 µM: 1.1

## NCC[C@H](O)C(=O)N[C@@H]1C[C@H](N)[C@@H](O[C@H]2O[C@H](CN)[C@@H](O)[C@H](O)[C@H]2O)[C@H](O)[C@H]1O[C@H]1O[C@H](CO)[C@@H](O)[C@H](N)[C@H]1O [Amikacin hydrate]
E. faecium; [3]
  fold induction at 50 µM: 1
[1]; [4]
  fold induction at 50 µM: 1.3
K. pneumoniae; [5]
  fold induction at 50 µM: 6.2
[2]; [6]
  fold induction at 50 µM: 7.6
P. aeruginosa; [7]
  fold induction at 50 µM: 14.2
E. cloacae; [8]
  fold induction at 50 µM: 4.9
E. coli; [9]
  fold induction at 50 µM: 22.1

## CN(C)[C@@H]1C(O)=C(C(=O)NCNCCCC[C@H](N)C(=O)O)C(=O)[C@@]2(O)C(O)=C3C(=O)c4c(O)cccc4[C@@](C)(O)[C@H]3C[C@@H]12 [Lymecycline]
E. faecium; planktonic E. faecium, […], read-out: AK-based Prestwick library screening result, E. faecium (fold increase in extracellular AK activity)
  fold induction at 50 µM: 1
[1]; planktonic S. aureus, […], read-out: AK-based Prestwick library screening result, S. aureus (fold increase in extracellular AK activity)
  fold induction at 50 µM: 0.7
K. pneumoniae; planktonic K. pneumoniae, […], read-out: AK-based Prestwick library screening result, K. pneumoniae (fold increase in extracellular AK activity)
  fold induction at 50 µM: 0.7
[2]; planktonic A. baumannii, […], read-out: AK-based Prestwick library screening result, A. baumannii (fold increase in extracellular AK activity)
  fold induction at 50 µM: 0.8
P. aeruginosa; planktonic P. aeruginosa, […], read-out: AK-based Prestwick library screening result, P. aeruginosa (fold increase in extracellular AK activity)
  fold induction at 50 µM: 0.7
E. cloacae; planktonic E. cloacae, […], read-out: AK-based Prestwick library screening result, E. cloacae (fold increase in extracellular AK activity)
  fold induction at 50 µM: 1.2
E. coli; planktonic E. coli, […], read-out: AK-based Prestwick library screening result, E. coli (fold increase in extracellular AK activity)
  fold induction at 50 µM: 0.8

## O=C(O)CN(CCN(CC(=O)O)CC(=O)O)CCN(CC(=O)O)CC(=O)O [Pentetic acid]
E. faecium; [18]
  fold induction at 50 µM: 1
[1]; [19]
  fold induction at 50 µM: 1.4
K. pneumoniae; [20]
  fold induction at 50 µM: 1.1
[2]; [21]
  fold induction at 50 µM: 1.3
P. aeruginosa; [22]
  fold induction at 50 µM: 1.2
E. cloacae; [23]
  fold induction at 50 µM: 1.5
E. coli; cutoff for positive-scoring molecules 3-fold increase, read-out: AK-based Prestwick Library Screening Results, E. coli (fold increase in extracellular AK activity)
  fold induction at 50 µM: 1.3

## S=C(NC1CCCCC1)N1CCC(c2cnc[nH]2)CC1 [Thioperamide maleate]
E. faecium; [18]
  fold induction at 50 µM: 1
[1]; [19]
  fold induction at 50 µM: 1.1
K. pneumoniae; [20]
  fold induction at 50 µM: 1
[2]; [21]
  fold induction at 50 µM: 1
P. aeruginosa; [22]
  fold induction at 50 µM: 1.3
E. cloacae; [23]
  fold induction at 50 µM: 1.6
E. coli; [24]
  fold induction at 50 µM: 1.2

## CC(C)c1c(CN(C)C(C)Cc2ccccc2)n(C)n(-c2ccccc2)c1=O (centres unmarked) [Famprofazone]
E. faecium; […], read-out: AK-based Prestwick Library Screening Results, E. faecium (fold increase in extracellular AK activity)
  fold induction at 50 µM: 1
[1]; […], read-out: AK-based Prestwick Library Screening Results, S. aureus (fold increase in extracellular AK activity)
  fold induction at 50 µM: 0.8
K. pneumoniae; […], read-out: AK-based Prestwick Library Screening Results, K. pneumoniae (fold increase in extracellular AK activity)
  fold induction at 50 µM: 1.1
[2]; […], read-out: AK-based Prestwick Library Screening Results, A. baumannii (fold increase in extracellular AK activity)
  fold induction at 50 µM: 1.1
P. aeruginosa; […], read-out: AK-based Prestwick Library Screening Results, P. aeruginosa (fold increase in extracellular AK activity)
  fold induction at 50 µM: 1.2
E. cloacae; […], read-out: AK-based Prestwick Library Screening Results, E. cloacae (fold increase in extracellular AK activity)
  fold induction at 50 µM: 1.5
E. coli; [24]
  fold induction at 50 µM: 1.2
